Test results from patent US20250381274A1 (priority 2022, published 2025).
Values joined by “and” are separate entries in the source; they are usually repeats but may differ in a detail not shown here. Equal values may be shown once. “Also recorded” adds a separate entry of the source. Read-outs that look alike come from different tables or passages of the source.

Tests used:
corneal buttons = system: corneal buttons; set-up: species or system rabbit
Method: • 3 rabbits, (n=8 pairs of 3 mm biopsy punched corneal buttons) • Laser Treatments: • Fidelity II, 1069 nm, 450 mW • Focusing: Marker/spark around, not touching the tissue • Objective: ZEISS 40X, NA=0.1463 • Z: increments 20 μm, 5 layers (several intervals) • 1stlayer 15 μm below surface of focus sparking • XY: 10 μm zigzag grid, 3 mm radius circle • With ˜12 gram compression • Motor speed 2.6 mm/s, full circle treatments: ˜25*5 mins • Sample Preparation: • −3 mm biopsy punch (1BT) • not connected to IV system • Prior to LT: 30 mins in 20% w/w Dextran 500 in PBS • 30 mins in 20% w/w ribose in DPBS (˜1.7M) • Post LT: Trypan blue is used to mark endothelium side • Imaged on the same day in DPBS • Overnight storage in DPBS in 4C fridge • 3 hrs prior to indentation, in room temp PBS • Piuma nano-indentation: • For each cornea button, the average of up to 16 indentations are acquired as
• 3 rabbits, (n=10 pairs of 3 mm biopsy punched corneal buttons) • 3 mm biopsy punch • not connected to IV system • Treatment Protocol-1 hr submerged in 20% w/v Ribose for all samples • 1 hr of UV-A lamp irradiation (control was not under UV) • Post Treatment Trypan blue is used to mark endothelium side • Imaged on the same day in DPBS • Overnight storage in DPBS in 4C fridge • 3 hrs prior to indentation, in room temp PBS • Piuma nano-indentation: • For each cornea button, the average of up to 16 indentations are acquired as representative modulus • The average of the representative modulus are presented in appended FIGS. 1-25.
Nano-Indentation: The corneal buttons were stored in PBS in a 4C fridge overnight for hydration equilibrium. Indentations of 5 μm depth using 29-35 μm diameter spherical indenters were performed on the anterior surface of the cornea buttons to acquire 25-second load-relaxation curves. For each button, the average of up to 16 indentations was used as the representative result. The equilibrium modulus and the viscoelastic ratio, defined as equilibrium modulus over instantaneous modulus, were calculated and compared.
Nanoindentation: Indentations were performed on the anterior surface of the cornea buttons. The equilibrium modulus E∞, instantaneous modulus Eo, and the viscoelastic ratio E∞/Eo, were calculated and compared.
After overnight incubation in PBS at 4C to reach equilibrium hydration, corneal buttons in Group A were allowed to return to room temperature the next morning after the respective treatment days while glued to the bottom of a petri-dish with the anterior surface of the corneal button facing upward. A displacement-controlled indenter (Piuma, Optics 11, Amsterdam, The Netherlands) was used to perform micro-indentations on top of the sample surface submerged in PBS; for each sample, multiple tests were performed following an array of 16 equally spaced (4×4) contact points with a spacing of 100 μm to 150 μm, covering roughly a 0.4×0.4 mm^2 area at the center of each corneal button. A spherical glass probe with a 34 μm radius and 0.2 N/m stiffness was used for samples in Group 1A; another spherical glass probe with a 25.5 μm radius and 4.09 N/m stiffness was used for Group 1B, 1C, 1D, and 2C. The indentation process at each contact point was comprised of three consecutive steps of loading Piezo movement of 5 μm for 2 seconds, holding time of 5 s, and unloading for 2 seconds. The load-relaxation curves obtained after indenting each point were then processed using a viscoelastic model to obtain equilibrium modulus and viscoelastic ratio following a fitting algorithm developed by Oyen.

cornea = experiment: Optical coherence tomography, corneal apical thickness; set-up: species or system rabbit; conditions: for sustained thickness change, treated vs control / thickness increase compared to the baseline: final time point; for thickness increase compared to the baseline: all eyes (treated and control)
Method: In Group2 (n=15 rabbits), to assess corneal flattening, 24 intact eyeballs (12 rabbits) were enucleated and placed into a custom-build holder such that one eye was subject to ROS-Glycation-CXL, and the other served as a paired control. After 1 hr incubation in 20% ribose PBS, all apical eyeballs were pressed with a coverslip until the contact between the cornea and the coverslip reached approximately 3 mm in diameter until the treatment finished. Group 2A's (n=6 pairs) treated eyes were exposed to 1.5 hours of UVA lamp irradiation, whereas Group 2 B's (n=6 pairs) treated eyes were exposed to 3 hours of UVA lamp irradiation. Intraocular pressure was kept at 18-20 mm H2O through an IV system with needles connecting at the posterior side of the eyeball. In order to investigate the mechanical difference between the 1.5 hrs and 3 hrs irradiation groups, Group 2C's (n=3 pairs) corneas went through similar preparations as Group 1 corneas did such that the two treatments with different irradiation times were applied to the pair of eyes from the same animal. The corneas' cross-section and apical thickness were measured using an optical coherence tomographer (OQ LabScope Lumedica, North Carolina, USA) at the same time points described above. The thickness of the corneas was first segmented in ImageJ and calculated using a constant pixel-to-length conversion factor.

[1] = 20% ribose 1 hr + 365 nm UVA lamp 1 hr
[2] = 20% ribose + 400 nm femtosecond laser
[3] = 20% ribose + 1069 nm femtosecond laser
[4] = 20% ribose + 1069 nm femtosecond laser, listed as Ribose

O=C[C@H](O)[C@H](O)[C@H](O)CO [ribose]
instantaneous modulus change vs paired control (corneal buttons; [1]): significantly increased
viscoelastic ratio change vs paired control (words) (corneal buttons; [1]): no change; also recorded: no significant E∞/Eo difference; also recorded: No significant changes; also recorded: None of the ROS-Glycation-CxL treatments produced a significant difference
equilibrium modulus change vs paired control (words) (corneal buttons; 20% ribose 1 hr + 365 nm UVA lamp 1 hr, coverslip): significantly increased; also recorded: significantly higher; also recorded: statistically significant differences
equilibrium modulus change vs paired control (words) (corneal buttons; 20% ribose 1 hr + 365 nm UVA lamp 1 hr, coverslip, listed as Ribose): significantly increased
viscoelastic ratio change vs paired control (words) (corneal buttons; 20% ribose 1 hr + 365 nm UVA lamp 1 hr, listed as Ribose): not significantly changed
equilibrium modulus change vs paired control (words) (corneal buttons; [2]): significantly higher; also recorded: statistically significant differences
viscoelastic ratio change vs paired control (words) (corneal buttons; [2]): No significant changes; also recorded: None of the ROS-Glycation-CxL treatments produced a significant difference
equilibrium modulus change vs paired control (words) (corneal buttons; [3]): significantly higher; also recorded: statistically significant differences
instantaneous modulus change vs paired control (corneal buttons; [3]): significantly increased
viscoelastic ratio change vs paired control (words) (corneal buttons; [3]): No significant changes; also recorded: None of the ROS-Glycation-CxL treatments produced a significant difference
equilibrium modulus change vs paired control (words) (corneal buttons; [4]): significantly increased
viscoelastic ratio change vs paired control (words) (corneal buttons; [4]): not significantly changed
equilibrium modulus (corneal buttons; Group 1A: 20% ribose PBS 1 hr, then 1069 nm femtosecond laser 450 mW, coverslip pressed): 25 kPa and 26.7 kPa
equilibrium modulus (corneal buttons; Group 1B: 20% ribose PBS 1 hr, then 400 nm femtosecond laser, coverslip pressed): 60 kPa and 63.2 kPa
equilibrium modulus (corneal buttons; Group 1C: 20% ribose PBS 1 hr, then 365 nm UVA lamp 1 hr, coverslip pressed): 100 kPa and 115.3 kPa
equilibrium modulus, 1.5 hr vs 3 hr irradiation (corneal buttons; Group 2C: ribose + 365 nm UVA lamp 1.5 hours vs 3 hours): no significant difference in mechanical properties; also recorded: no different in equilibrium modulus
viscoelastic ratio, 3 hr vs 1.5 hr irradiation (corneal buttons; Group 2C: ribose + 365 nm UVA lamp 3 hours vs 1.5 hours): significantly higher viscoelastic ratio; also recorded: significant difference
equilibrium modulus, fold of control's modulus (corneal buttons; ribose + 400 nm laser at 100 mW vs ribose-only control): ~4.6 fold
equilibrium modulus, fold of control's modulus (corneal buttons; ribose + 1060 nm laser at 450 mW vs ribose-only control): ~3.8 fold
equilibrium modulus, fold of paired control modulus (corneal buttons; ribose + one-hour 365 nm UVA lamp vs ribose-only control): ~8.2 fold
equilibrium modulus (corneal buttons; ribose-only paired controls, no light exposure): around 10 kPa
sustained thickness change, treated vs control (cornea; Group 2A, 1.5 hr treatment): no significant difference; also recorded: no significant immediate and sustained corneal apical thickness differences
immediate thickness change, treated vs loading-only control (cornea; Group 2A, 1.5 hr treatment, immediately after treatment): no significant thickness change difference; also recorded: no significant immediate and sustained corneal apical thickness differences
thickness increase compared to the baseline (cornea; Group 2A): above 100 μm
sustained thickness change, treated vs control (cornea; Group 2B, 3 hr treatment): no significant difference; also recorded: no significant immediate and sustained corneal apical thickness differences
thickness increase compared to the baseline (cornea; Group 2B): above 200 μm
immediate apical thickness increase compared to loading-only control (cornea; Group 2B: coverslip flattening + 3 hr ROS-Glycation CxL, immediately after treatment): 400 nm
